According to patent US20080194641A1, “Pesticidal Mixtures” (BASF Aktiengesellschaft, priority 2005, published 2008):

What was measured:
[1] = tested on: Colorado potato beetle; experiment: Leaf-dip bioassay on potato leaves, larval mortality; type: in vivo; conditions: Leptinotarsa decemlineata, 120 h
Procedure: (§1) Potato plants for Colorado potato beetle and two-leaf cotton plants for tobacco budworm were utilized for bioassays. Excised plant leaves were dipped into 1:1 acetone/water dilutions of the active compounds. After the leaves had dried, they were individually placed onto water-moistened filter paper on the bottoms of Petri dishes. Each dish was infested with 5-7 larvae and covered with a lid. Each treatment dilution was replicated 4 times. Test dishes were held at approximately 27° C. and 60% humidity. Numbers of live and morbid larvae were assessed in each dish at 5 days after treatment application, and percent mortality was calculated.
(§2) To determine if an insecticidal mixture was synergistic, Limpel's formula was used:
(§3) E=Expected % mortality of the mixture X=% mortality of compound X, as measured independently Y=% mortality of compound Y, as measured independently
(§4) Synergism was evident if the % observed mortality for the mixture was greater than the % expected mortality.

[2] = tested on: tobacco budworm; experiment: Leaf-dip bioassay on cotton leaves, larval mortality; type: in vivo; conditions: Heliothis virescens, 120 h, read-out: % Mortality of Tobacco Budworm
Procedure: as §1, §2, §3, §4

[3] = read-out: % Mortality of Colorado Potato Beetle

**Q.** How did the mortality at 30 ppm ([1]; dose rate 30 ppm, 5 days after treatment) turn out when CCN/C(=N\Nc1c(Cl)cc(C(F)(F)F)cc1Cl)C1(C)CC1(Cl)Cl (stereo not drawn) [I-2, N-Ethyl-2,2-dichloro-1-methylcyclopropane-carboxamide-2-(2,6-dichloro-α,α,α-tri-fluoro-p-tolyl)hydrazone] was run?
**A.** 6.3%

**Q.** What about the mortality at 60 ppm ([1]; dose rate 60 ppm, 5 days after treatment) of the same compound?
**A.** 39.6%

**Q.** And the mortality at 60 ppm [2]?
**A.** 5.4%

**Q.** And the mortality at 100 ppm [2]?
**A.** 12.5%

**Q.** For CC1(C)C(C=C(Cl)Cl)C1C(=O)OC(C#N)c1cccc(Oc2ccccc2)c1 (stereo not drawn) [alpha-cypermethrin, reference compound], which mortality at 0.03 ppm [1, 3] is on record?
**A.** 0%

**Q.** And the mortality at 0.06 ppm [1, 3]?
**A.** 4.2%

**Q.** And the mortality at 0.03 ppm [2]?
**A.** 0%

**Q.** What about the mortality at 0.06 ppm [2] of the same compound?
**A.** 8.9%

**Q.** With O=[N+]([O-])NC1=NCCN1Cc1ccc(Cl)nc1 [imidacloprid, reference compound] as the compound, how does the mortality at 0.06 ppm [1, 3] read?
**A.** 0%

**Q.** Which results are given for CCN/C(=N\Nc1c(Cl)cc(C(F)(F)F)cc1Cl)C(C)(C)C [I-1, N-ethyl-2,2-dimethylpropionamide-2-(2,6-dichloro-α,α,α-trifluoro-p-tolyl)-hydrazone]?
**A.** mortality at 100 ppm ([1]; dose rate 100 ppm, 5 days after treatment): 0%; mortality at 300 ppm ([1]; dose rate 300 ppm, 5 days after treatment): 20.8%; mortality at 100 ppm [2]: 0%; mortality at 300 ppm [2]: 16%
